This note sets out measurements from a melting point compilation (Tetko et al.; mined from patent text by program, amines drawn as free bases though some values may be those of a salt).

The structures appear in SMILES notation. A value given as a limit tells only on which side of the number the result lay.

In general, melting point refers to the temperature, or range, at which the solid turns liquid. As to `CCCOc1ccc(COCCN2CCOCC2)cc1-c1nc2c(CCC)nn(C)c2c(=O)[nH]1`, the melting point lay within 65 to 66 °C.

Consider `CC(=O)NC=Nc1ccc2nnc(-c3ncc([N+](=O)[O-])n3C)n2n1`, for which the melting point lay in the range of 237 to 241 °C.

`CCC(C)(O)C#Cc1ccc(C(CC2CCCC2)C(=O)O)cc1` (stereo not given): the melting point lay in the range of 91 to 94 °C.

As to `CC(C)c1cc(Oc2c(I)cc(CP(=O)(O)O)cc2I)ccc1O`, the melting point was more than 220 °C.

As to `O=c1ccc2c([nH]1)C(Nc1ccccc1)CCC2` (stereo not given), the melting point turned out to be 225 °C.

For the compound `C=C1C[C@@H](C(=O)O)[C@H](C(=O)O)C1` (relative stereo), the melting point fell in the range of 178 to 179 °C.

Regarding `O=C(O)C(=O)CC(=O)c1cccn1Cc1ccc(Br)cc1`, the melting point lay in the range of 184 to 185 °C.

`O=S(=O)(Nc1cc(-c2ncc(C(F)(F)F)cc2Cl)ccc1Cl)c1ccc(Cl)cc1` yielded a melting point of 156 to 157 °C.

Compound `O=C(Nc1nccs1)c1nc(-c2cccc3ccccc23)[nH]c1-c1ccc([N+](=O)[O-])cc1` gave a melting point of 237 to 238 °C.

On to `OCC1OC(n2cnc3c(NC4CCc5ccccc54)ncnc32)C(O)C1O` (stereo not given), for which the melting point was 120 to 122 °C.

Compound `O=C(c1ccccc1)c1cccc2c1OCC2C(=O)O` (stereo not given) came in with a melting point of 163 to 165 °C.

In the case of `CC(C)c1ccc(-c2cccc(-c3cccc(C(=O)O)c3)n2)cc1`, the melting point is 215 to 216 °C.

Turning to `Cc1ccc(C)n1C1=CC2=C(CC1)CCc1[nH]c(=O)c(=O)n(OCC(=O)O)c12`, the melting point was more than 260 °C.

`COc1cc(O)ccc1C=CC(=O)c1ccc(O)cc1` registered a melting point of 210 to 212 °C.

For the compound `O=Cc1cc2c(s1)CCCc1cc(=O)n(-c3ccc(Cl)cc3)nc1-2`, the melting point lay within 170 to 172 °C.

Turning to `COc1cc(C)c(S(=O)(=O)NC(=S)Nc2nc(-c3ccc(C4CCCCC4)cc3)c(C)s2)c(C)c1`, the melting point fell in the range of 177 to 178 °C.

On to `N#CC(C(=O)Nc1ccccc1)C(=O)c1nn(-c2ccccc2)c2c1COc1ccc(Cl)cc1-2` (stereo not given), for which the melting point lay within 243 to 246 °C.

`Cc1cc(-c2cc(C(F)F)n3ncc(C(=O)Nc4nc(C)c(S(=O)(=O)NC(C)(C)CO)s4)c3n2)ccc1C(F)(F)F` yielded a melting point of 271 °C.

As to `O=C1C2=C(SCCO2)C(O)N1c1ccc(Cl)cn1` (stereo not given), the melting point came out at 202 °C.

Turning to `CN(Cc1cc(C(F)(F)F)cc(C(F)(F)F)c1)C(=O)c1c(-c2ccc(C(=O)O)cc2)c2cccnc2c(=O)n1C`, the melting point was 301 to 302 °C.

For the compound `O=C(O)CCc1oc(Sc2nncn2-c2ccccc2)nc1-c1ccc(Cl)cc1`, the melting point was in the range of 122 to 123 °C.

Consider `C=CCOC1(C(F)(F)F)CN(C2CC2)C(=O)Nc2ccc(Cl)cc21` (stereo not given), for which the melting point is 120 to 121 °C.

In turn, `CC(C)(C)OC(=O)NC1CCC(=O)NC1=O` (stereo not given) returned a melting point of 214 to 215 °C.

Compound `Nc1cc(=O)n(Cc2cccc(Cl)c2)[nH]1` had a melting point of 132 °C.

On to `O=c1[nH]c2cc(Cl)ccc2c(O)c1-c1cccc(Br)c1`, for which the melting point is 358 °C.

The compound `CNc1nc(-c2cccc(NCc3ccccc3)c2)c2cc(OC)c(OC)cc2n1` yielded a melting point of 146 to 148 °C.

Compound `CCCCc1oc2ccccc2c1-c1ncc(-c2ccc3cc(OCc4ccc(C(=O)OC)cc4C(=O)OC)ccc3c2)o1` yielded a melting point of 195 to 197 °C.

As to `COC(=O)C(C)(C)OCc1cc2cc(Cl)ccc2n1S(=O)(=O)c1cc(C)cc(C)c1`, the melting point was in the range of 110 to 112 °C.

As for `Nc1cc(C(=O)CCCCCl)cc2c1OCC2`, the melting point is 129 to 131 °C.

Turning to `CNC(=O)c1ccc(Br)c2nsnc12`, the melting point fell in the range of 156 to 160 °C.

`C=Cn1cc(C(=O)OCC)c(=O)c2cc(F)c(N3CCN(C)CC3)cc21`: the melting point is 186 to 188 °C.

On to `CN=C(NS(=O)(=O)c1ccc(Cl)c(Cl)c1)SC`, for which the melting point was 158 to 159 °C.

Regarding `CCOC(=O)C(Cc1ccc(OCCBr)cc1)OCC` (stereo not given), the melting point is 110 to 114 °C.

Regarding `O=C(O)C1OCC(O)C(O)C1O` (stereo not given), the melting point was in the range of 194 to 196 °C.

Compound `CCc1c(C(=O)O)nn(-c2ccc(Cl)cc2Cl)c1-c1ccc(Br)cc1` came in with a melting point of 218 °C.

Take `COc1ncccc1NC(=NC#N)NC(NC(=O)c1cc(Cl)cc(Cl)c1)C(C)(Cl)Cl` (stereo not given): the melting point lay in the range of 149 to 150 °C.

`CSc1ncc(-c2ccccc2)c(Cl)n1`: the melting point turned out to be 99 °C.

As for `CCOC(=O)COc1cccc2c1CCc1sc(O)nc1-2`, the melting point is 74 to 75 °C.

In turn, `CCSC1=N[C@@H](c2ccc(OC)cc2)[C@@H](c2ccc(OC)cc2)N1` registered a melting point of 92 to 93 °C.

Take `C[C@@H](c1ccc(F)cc1)N1CCN(c2cc(Nc3ccc4cccnc4c3)ncn2)CC1`: the melting point lay in the range of 206 to 207 °C.

Compound `Fc1ccc2[nH]ccc2c1Cl` returned a melting point of 41 to 43 °C.

Compound `NCC(F)(F)C(F)(F)C(F)(F)C(F)(F)CN` yielded a melting point of 44 to 45 °C.

On to `COc1ccc(C(=O)C(CC(=O)N[C@@H](Cc2ccccc2)C(=O)O)SC(C)=O)cc1F` (stereo not given in full), for which the melting point lay in the range of 140 to 146 °C.

For the compound `CCCCCCCCCCCCCC(=O)Nc1ccc(Cl)c(NC2=NN(c3c(Cl)cc(Cl)cc3Cl)C(=O)C2SCCc2ccccc2)c1` (stereo not given), the melting point was in the range of 161 to 162 °C.

`Clc1ccc(-c2ccc(CBr)cc2)cc1`: the melting point is 64 to 66 °C.

Turning to `CC1CC(=O)NN=C1c1ccc2c(c1)N(S(C)(=O)=O)CCO2` (stereo not given), the melting point lay within 207 to 212 °C.

In turn, `COc1ccnc(C(=O)NCCNC(=O)OC(C)(C)C)c1` yielded a melting point of 106 to 107 °C.

In the case of `Cc1cc(Cl)cc2c(=O)oc(-c3cc(Br)nn3-c3ncccc3Cl)nc12`, the melting point was in the range of 203 to 205 °C.

The compound `COc1nc(C)nc(OC)c1[N+](=O)[O-]` showed a melting point of 114 to 115 °C.

The compound `C=C(C)Cc1c(C)c(NC=O)c(C)c(CC(=C)C)c1O` displayed a melting point of 169 to 170 °C.

For the compound `CC(C)(C)c1cc(C(CCc2ccccc2)NCP(=O)(O)O)cc(C(C)(C)C)c1O` (stereo not given), the melting point fell in the range of 162 to 169 °C.

`CC(=O)N(CC(=O)N1c2ccccc2N(Cc2ccccc2)C(=O)[C@H]2CCC[C@H]21)C(=O)CCc1ccccc1` (relative stereo) showed a melting point of 138 to 140 °C.

The compound `COc1cc2c(cc1-n1cccc1)C(Nc1ccc(F)c(Cl)c1)=C(C#N)CN2` had a melting point of 192 to 194 °C.

Compound `Cc1ccc2c(n1)CCCC2(O)c1ccccc1` (stereo not given) displayed a melting point of 130 to 134 °C.

`CCn1nc(-c2ccncc2)c(C(C)=O)c(Nc2ccc(C(=O)O)cc2)c1=O` gave a melting point of 252 to 253 °C.

In turn, `NC(=O)c1nc(-c2cnc3nc[nH]c3c2)nc2c1[nH]c(=O)n2-c1ccccc1C(F)(F)F` registered a melting point of 320 °C.

Regarding `CCC(CC)COc1c(C)nc(N)nc1N`, the melting point fell in the range of 142 to 143 °C.

Consider `O=C(Nc1ccccc1C(F)(F)F)c1ccc([N+](=O)[O-])cc1`, for which the melting point was found to be 126 °C.

For `Cc1ccc(S(=O)(=O)N(c2ccc([N+](=O)[O-])cc2Cl)C(C)C)cc1`, the melting point lay within 154 to 157 °C.

As to `CC(NC(=O)c1cc2ccccc2[nH]1)C(=O)N(c1ccccc1)c1ccccc1` (racemic), the melting point came out at 242 °C.

The compound `CC(C)CCCCCCCCCCCCc1ccc(O)cc1O` displayed a melting point of 70 °C.

In turn, `CCc1noc(-c2cn(-c3cc(OC)ccc3Cl)cn2)n1` yielded a melting point of 67 to 69 °C.

Take `BrC1=Cc2ccccc2Nc2ccccc21`: the melting point was in the range of 65 to 69 °C.

Compound `CC(C)(Oc1ccc(CC(=O)Nc2ccc(Cl)cc2)cc1)C(=O)O` showed a melting point of 163 °C.

With `COC=C(C(=O)OC)N(C)c1cccc(-c2ccc(Cl)cc2)n1`, the melting point was found to be 135 °C.

Compound `COc1ccc(-c2[nH]cnc2-c2cc(OC)c(N)c(OC)c2)cc1O` displayed a melting point of 142 to 144 °C.

Turning to `CC1(c2ccccc2)OC(=S)Nc2ccc(-c3cccc(Cl)c3)cc21` (stereo not given), the melting point lay in the range of 202 to 203 °C.

`CCCc1c(CSc2nnc(NC(=O)C(=O)OCC)s2)ccc(C(C)=O)c1O` showed a melting point of 189 °C.

`COc1ccc(C(=O)CCCCc2ccccc2)cc1OC` showed a melting point of 56 to 58 °C.

`CC1Cc2cc(N3C[C@H](CO)OC3=O)ccc2N1C(=O)OCc1ccccc1` (stereo not given in full) came in with a melting point of 144 to 145 °C.

As to `Cc1ccc(S(=O)(=O)OC2=COC2)cc1`, the melting point was 86 to 88 °C.

In the case of `CCCCCCC1C(=O)NC(C(=O)SCCC(=O)OC)(C(O)C2C=CCCC2)C1(C)O` (stereo not given), the melting point amounted to 64 °C.

As for `Cc1nnc(-c2ccc3ncn(C4CCN(S(C)(=O)=O)CC4)c3c2)o1`, the melting point fell in the range of 233 to 234 °C.

For the compound `Cc1ccc(C(=O)NC(NC(=S)Nc2cccc(F)c2F)C(F)(F)F)cc1` (stereo not given), the melting point is 210 to 211 °C.

Turning to `O=C1c2ccccc2C(=O)N1C[C@H](O)CCl`, the melting point was in the range of 100 to 101 °C.

Take `CCOC(=O)c1c(Oc2ccc(Cl)cc2N)c2ccccc2n1C`: the melting point was 118 to 120 °C.

For the compound `COC(=O)N1CCC(c2ccc(N3C[C@H](CNC(C)=O)OC3=O)cc2F)CC1`, the melting point lay within 165 to 166 °C.

Turning to `Cc1nc(NCc2ccccc2)sc1-c1ccnc(Nc2ccc(N3CCOCC3)cc2)n1`, the melting point was 180 to 183 °C.

`N#Cc1ccc(N)cc1Sc1ccccc1` registered a melting point of 69 to 71 °C.

With `O=C1COCCOCC(=O)N2CCOCCOCCN1CCOCC2`, the melting point came out at 105 °C.

On to `Nc1nc(N)c(-c2ccc(Cl)cc2Cl)c(Cl)n1`, for which the melting point was 219 °C.

For the compound `O=C(NCCC1CCCCC1)NCCC1CCCCC1`, the melting point was in the range of 150 to 152 °C.

`CN1CCC(=C2c3ccccc3C=Cc3ccc(C(=O)OCN4C(=O)CN(C)C4=O)cc32)CC1` displayed a melting point of 188 to 189 °C.

Compound `COC(=O)c1cccc2c(Cl)c(OC)ccc12` yielded a melting point of 125 °C.

As to `CS(=O)(=O)c1ccc(C(=O)O)c(Cl)c1C1=NOCC1`, the melting point is 145 to 146 °C.

`C=C1CCc2onc(-c3ccccc3)c2C1=O` showed a melting point of 97 to 99 °C.

Consider `N#CC(=CO)c1ccc(Cl)cc1Cl`, for which the melting point is 162 to 163 °C.

As for `Cn1c2cc(O)c(O)cc2c2cc(O)c(O)cc21`, the melting point was more than 270 °C.

Turning to `Fc1ccc(OC(CCN2CCN(c3ccccc3)CC2)c2ccccc2)cc1` (stereo not given), the melting point fell in the range of 80 to 82 °C.

On to `N#CCNC(=O)C1(NC(=O)c2ccc(CBr)cc2)CCCCC1`, for which the melting point was 194 to 196 °C.
